Literature values as cited in US20090092696A1, “Herbal combination omega oil aphrodisiac” (priority 2007, published 2009).

How the values were obtained:
[1] = tested on: corpus cavernosum; conditions: for erection when injected directly into the corpus cavernosum: hypodermic needle injection; for duration of erection after injection: appropriate dose, intracavernosal
[2] = tested on: impotent men; conditions: ingestion
[3] = tested on: impotentia erectionis; conditions: buccal administration of 100 I.U. three times a day for 14 days

SMILES	erection when injected directly into the corpus cavernosum [1]	other results
CCN(CC)CCOC(=O)C(Cc1cccc2ccccc12)CC1CCCO1 (mixture of isomers) [naftidrofuryl]	caused erection	
COC(=O)[C@@H]1[C@H]2C[C@H]3c4[nH]c5ccccc5c4CCN3C[C@@H]2CC[C@@H]1O [Yohimbine]		subjective improvement in erectile ability ([2]; impotent men treated): 38%; treated patients reporting complete satisfaction [2]: 5%
CN(C)CCCN1c2ccccc2CCc2ccccc21 [imipramine]	caused erection	
CC[C@H](C)[C@@H]1NC(=O)[C@H](Cc2ccc(O)cc2)NC(=O)[C@@H](N)CSSC[C@@H](C(=O)N2CCC[C@H]2C(=O)N[C@@H](CC(C)C)C(=O)NCC(N)=O)NC(=O)[C@H](CC(N)=O)NC(=O)[C@H](CCC(N)=O)NC1=O [oxytocin]		improvement of impotentia erectionis [3]: 12 of the 16
COc1ccc(Cc2nccc3cc(OC)c(OC)cc23)cc1OC [papaverine]	caused erection	duration of erection after injection [1]: unrelenting erection lasting for hours
CC(COc1ccccc1)N(CCCl)Cc1ccccc1 (stereo not drawn) [phenoxybenzamine]	caused erection	duration of erection after injection [1]: unrelenting erection lasting for hours
Cc1ccc(N(CC2=NCCN2)c2cccc(O)c2)cc1 [phentolamine]	caused erection	
CC(=O)Oc1cc(C(C)C)c(OCCN(C)C)cc1C [thymoxamine]	caused erection	
COc1ccc(CCN(C)CCCC(C#N)(c2ccc(OC)c(OC)c2)C(C)C)cc1OC (stereo not drawn) [verapamil]	caused erection	
